Patent publication US20110158909A1, “Cationic Contrast Agents and Methods of Use Thereof” (Trustees of Boston University, priority 2008, published 2011)
Where two headings read alike, the source gives them in different places.

Columns and labels:
[1] = Passive diffusion of contrast agents into and out of articular cartilage, quantitative CT; parameters: species or system bovine; conditions: for average CT attenuation: time=5 h to time=24 h of immersion in contrast agent, 27 mg iodine/mL, pH 6.8, n=4
Procedure: The diffusion characteristics of the contrast agents were evaluated using bovine osteochondral plugs. Two cationic contrast agents, 4 and 6, were compared to a commercially-available singly-charged anionic contrast agent, iothalamate (Cysto Conray II®). Three groups of osteochondral plugs were prepared (n=4)—one for each contrast agent. The plugs were immersed in aqueous contrast agent solution (27 mg of organically-bound iodine/mL, pH 6.8) and removed at 1, 2, 4, 6, 18, and 24 h for imaging using quantitative CT (QCT). Following diffusion into the cartilage, the osteochondral plugs were immersed in saline solution and imaged at the same time points to monitor the diffusion of the contrast agent out of the cartilage. Articular cartilage has a natural anisotropic distribution of GAGs, with low GAG content in the superficial zone and higher GAG content in the middle and deep zones. This anisotropic distribution of GAG was reflected by the variation in x-ray attenuation in the CT images (FIG. 5B). […] In order to determine the initial rates of diffusion into the cartilage tissue, linear regression analyses were applied to the contrast-enhanced CT attenuation data for each osteochondral plug after immersion for 0, 1, and 2 h (Table 1). The slope represents the average rate of diffusion for each contrast agent. Cationic contrast agents 4 and 6 diffuse into cartilage 1.77 and 1.65 times faster, respectively, than the anionic agent iothalamate (FIG. 6).

[2] = Cartilage degradation study (chondroitinase ABC): CT attenuation vs GAG content by DMMB assay; parameters: species or system bovine; conditions: for slope of linear regression, average CT intensity vs GAG content: GAG content as 100×(mg of GAG)/(mg of hydrated cartilage)
Source text: In order to evaluate the ability of the contrast agents to diagnose an OA state, the hyaline cartilage of the osteochondral plugs was enzymatically degraded to mimic the GAG depletion observed in early OA by exposing the hyaline cartilage to different concentrations of the polysaccharide-specific hydrolase, chondroitinase ABC. After degradation, the same set of osteochondral plugs was exposed to each contrast agent consecutively, enabling a direct comparison of the resulting data. The average CT attenuation for each group was plotted as a function of the GAG content obtained by the DMMB assay and subjected to linear regression analysis (FIG. 7A). […] The variation in CT attenuation effected by diffusion of cationic contrast agent 6, with four positive charges, into the hyaline cartilage accounted for 79% of the variation in cartilage GAG, whereas the variation in CT attenuation effected by diffusion of cationic contrast agent 4, with a single positive charge, accounted for 56% of the variation in cartilage GAG. In comparison, the diffusion of anionic contrast agent iothalamate with a single negative charge accounted for 52% of the variation in cartilage GAG. The slope of the regression line represents the sensitivity of contrast enhanced CT attenuation of cartilage to changes in the GAG content of the cartilage. The cationic contrast agents were more sensitive (4: 1.4× and 6: 5.3×) to changes in cartilage GAG content than the anionic contrast agent iothalamate.

[3] = microCT imaging of intact rabbit femur; conditions: magnified view of cartilage surface, FIG. 8B
Source text: Contrast agent 6 was chosen for use in a rabbit femur study to highlight the ability of the cationic contrast agent to portray the variation in cartilage GAG concentration and cartilage thickness in an intact rabbit femur. […] The contrast-enhanced CT image was able to define the anisotropic distribution of GAG through the depth of the articular cartilage. […] The contrast enhanced CT image of the femur can also be used to determine the variable thickness of the articular cartilage. […] Cartilage thickness is greater at the femoral groove than at the condyles.

[4] = CT imaging of normal and trypsin degraded osteochondral plugs with anionic and cationic contrast agent; parameters: species or system bovine; conditions: for x-ray attenuation coefficient, normal vs trypsin degraded osteochondral plugs: 16 mg/mL bound iodine, overnight at 4° C., p<0.05
Procedure: In one experiment, eight osteochondral plugs (7 mm diameter) were harvested immediately after slaughter from the patella-femoral joint of three mature cows using a water-cooled, cylindrical diamond tipped cutter (See FIG. 2a for an example picture of osteochondral plugs). The plugs were divided into a normal cartilage group (n=4) and a trypsin degraded cartilage group (n=4). The osteochondral plugs of the degraded cartilage group were immersed in trypsin (2 mg/mL in 50 mM Tris, 20 mM CaCl2, pH=7.8) and incubated for 2 hours at 37° C.
All the plugs were immersed overnight in Cysto Conray II, an anionic, triiodinated contrast agent, diluted in PBS to 16 mg/mL of bound iodine at 4° C. to allow sufficient time for the contrast agent to diffuse into the cartilage. Sequential, 100μ thick, transaxial pQCT images were obtained at 70μ in plane resolution and 300μ inter-slice distance (XCT Research SA+, Stratec) for all the osteochondral plugs. The CT data were imported into Analyze™ (BIR, Mayo Clinic) to create reconstructed 3D images of the osteochondral plugs (see FIG. 2b for a representative image representing one slice of the reconstructed 3D image). A user specified contour was employed to segment the cartilage from the bone. The mean x-ray attenuation coefficient for cartilage was obtained by averaging over all pixels contained in cartilage on the transaxial CT images. The osteochondral plugs were then washed in PBS to remove the anionic contrast agent. The plugs were then re-immersed in the cationic triiodinated contrast agent at the same dilution and conditions used for the anionic contrast agent and repeat CT imaging of the osteochondral plugs was performed.
The GAG content of the articular cartilage was measured using a dimethylmethylene blue (DMMB) assay. A razor blade was used to separate the articular cartilage from the subchondral bone and the cartilage was stored at −20° C. After weighing the hydrated cartilage, it was lyophilized and weighed dry. The cartilage was digested with papain at 65° C. for 24 hours and diluted 10 to 100 times for the assay. Accounting for the dilution, the total GAG weight per mg cartilage dry weight was calculated.
The GAG content measured directly; the x-ray attenuation measured by CT for the anionic and cationic contrast agents were compared for the normal and trypsin degraded articular cartilage plugs using 1-way.ANOVA. Further, the x-ray attenuation measured by CT for both the anionic and cationic contrast agents was expressed as a function of the measured GAG content. The slopes of these relationships were compared to assess the relative sensitivity of these contrast agents to measure differences in the GAG content of articular cartilage.

[5] = 2 h immersion in contrast agent

| level of CT attenuation in CT images of degraded and undegraded plugs [2] | relation of CT attenuation to GAG content [2] | sensitivity to changes in cartilage GAG content relative to iothalamate (slope of regression line) [2] [×] | variation in cartilage GAG accounted for by variation in CT attenuation [2] [%] | slope of linear regression, average CT intensity vs GAG content [2] | level of CT attenuation in CT images of degraded and undegraded plugs ([2]; after equilibrium in contrast agent, FIG. 7B) | Structure (SMILES) | CT attenuation of cartilage in CT images [1, 5] | CT attenuation of cartilage in CT images ([1]; after 24 h in saline) | x-ray attenuation higher compared to iothalamate ([1]; after equilibration (24 h)) [%] | initial rate of diffusion into cartilage relative to iothalamate ([1]; linear regression of CT attenuation at 0, 1 and 2 h) [times faster] | average CT attenuation [1] | sensitivity to distribution of GAG in cartilage surface [3] | x-ray attenuation coefficient, normal vs trypsin degraded osteochondral plugs [4] | sensitivity of relative change in x-ray attenuation to change in GAG content, compared to anionic contrast agent ([4]; normal vs trypsin degraded plugs) [×] | enhancement of CT images of cartilage tissue ([4]; osteochondral plugs) | reflection of anisotropic GAG distribution (deep vs superficial zone) in CT images ([1]; FIG. 5B) | CT attenuation of cartilage in CT images ([1]; after 2 h of immersion in saline) | removal from cartilage on immersion in saline ([1]; after immersion in saline for 6 hours) |
| --- | --- | --- | --- | --- | --- | --- | --- | --- | --- | --- | --- | --- | --- | --- | --- | --- | --- | --- |
| high levels of CT attenuation | directly proportional | 5.3 | 79 | 13758 | – | NCCNC(=O)c1c(I)cc(I)c(N)c1I [contrast agent 6] | medium levels | still showed medium levels of CT attenuation | ~60 | 1.65 | 900-1100 | sensitive to the variable distribution of GAG throughout the cartilage surface | – | – | – | – | – | – |
| – | – | – | – | – | – | NCCNC(=O)c1c(I)c(N)c(I)c(C(=O)NCCN)c1I [contrast agent 2] | – | – | – | – | – | – | greater than that for the trypsin degraded osteochondral plugs | 4.3 | capable of enhancing CT images of the cartilage tissue | – | – | – |
| – | indirectly related | – | 52 | negative slope | low levels of CT attenuation | CNC(=O)c1c(I)c(NC(C)=O)c(I)c(C(=O)O)c1I [iothalamate, reference compound] | very little change | – | – | – | 500-600 | – | inverse relation | – | – | less sensitive to subtle changes in the GAG content | began to decline | almost completely removed |
